Measurements: US6780871B2, “Methods and compositions for treating addiction disorders” (Albany Medical College, priority 2001, dated 2004)

What was measured:
α3β4 nACh receptors = target: T1, α3β4 nACh receptors (Rattus norvegicus, UniProt P04757+P12392); assay: whole-cell patch-clamp of transfected HEK293 cells, ganglionic α3β4 nACh receptors, 1 mM ACh; type: cell-based
T1 construct: expressed in transfected cells; host or cells: HEK293 (ATCC CRL1573), transient transfection
Procedure: Human embryonic kidney 293 (HEK293) fibroblasts (ATCC CRL1573) were cultured in minimal essential medium supplemented with 10% fetal bovine serum and 2 mM glutamine (Life Technologies, Rockville, Md.). Cells were plated on poly-D-lysine-coated 35 mm nunc dishes, transfected by the LipofectaminePLUS method (Life Technologies), and examined functionally between 18-48 h post transfection. The following receptor subunit cDNAs were used: nAChR-α3 (nicotinic acetylcholine receptor-α3; accession no. L31621), nAChR-α4 (accession no. L31620), nAChR-β2 (accession no. L31622), nAChR-β4 (accession no. U42976), 5-HT3R-A (5-HT3A receptor; accession no. M74425), NR1 (N-methyl-D-aspartate receptor 1; accession no. X63255), NR2A (accession no. X91561), and NR2B (accession no. M91562). The nAchR and NR clones were rat; the 5-HT3R-A clone was mouse. Co-transfection of enhanced green fluorescent protein (“EGFP”) (10% of total cDNA) provided a marker to identify transfected cells. Transfected cells were selected for EGFP expression and examined by voltage-clamp recording in the whole-cell configuration using an Axopatch 200B patch-clamp amplifier (Axon Instruments, Foster City, Calif.). Thin-walled borosilicate glass microelectrodes (TW150F, World Precision Instruments, Sarasota, Fla.) had resistances of 3-5 MΩ when filled with an internal solution containing (in mM): 135 CsCl, 10 CsF, 10 HEPES (N-[2-hydroxyethyl]piperazine-N′-[2-ethanesulfonic acid]), 5 EGTA (ethylene glycol-bis[β-aminoethyl ether]-N,N,N′,N′-tetraacetic acid), 1 MgCl2, 0.5 CaCl2, pH 7.2. Whole-cell capacitance and series resistance were recorded and adequately compensated using the available circuitry of the amplifier. Current responses were filtered at 1 kHz with an 8-pole Bessel filter (Cygnus Technologies, Delaware Water Gap, Pa.), digitized at 3 kHz, and stored on a Macintosh PowerPC-G3 computer using an ITC-16 interface (Instrutech, Great Neck, N.Y.) under control of the data acquisition and analysis program Synapse (Synergy Research, Gaithersburg, Md.). […] Rapid switching between inputs was achieved using a set of upstream solenoid valves (Lee Co., Westbrook, Conn.) under computer control; the solution exchange rate was ˜5 ms as measured from liquid junction currents.
Transfected HEK293 cells expressing various receptor subunit cDNAs were examined by whole-cell patch-clamp recording with fast perfusion of agonist and drug solutions. […] In FIG. 1A, open bars depict the timing of ACh application; filled bars depict the timing of co-application of 20 μM IBO or 20 μM 18MC; and inhibition was measured relative to control at the end of the drug application (indicated by arrows). […]

5-HT3A receptors = target: T2, 5-HT3A receptors (Mus musculus, UniProt P23979); assay: whole-cell patch-clamp of transfected HEK293 cells, 5-HT3A, 100 μM serotonin; type: cell-based
T2 construct: expressed in transfected cells; host or cells: HEK293 (ATCC CRL1573), transient transfection
T2 sequence (P23979 24-489): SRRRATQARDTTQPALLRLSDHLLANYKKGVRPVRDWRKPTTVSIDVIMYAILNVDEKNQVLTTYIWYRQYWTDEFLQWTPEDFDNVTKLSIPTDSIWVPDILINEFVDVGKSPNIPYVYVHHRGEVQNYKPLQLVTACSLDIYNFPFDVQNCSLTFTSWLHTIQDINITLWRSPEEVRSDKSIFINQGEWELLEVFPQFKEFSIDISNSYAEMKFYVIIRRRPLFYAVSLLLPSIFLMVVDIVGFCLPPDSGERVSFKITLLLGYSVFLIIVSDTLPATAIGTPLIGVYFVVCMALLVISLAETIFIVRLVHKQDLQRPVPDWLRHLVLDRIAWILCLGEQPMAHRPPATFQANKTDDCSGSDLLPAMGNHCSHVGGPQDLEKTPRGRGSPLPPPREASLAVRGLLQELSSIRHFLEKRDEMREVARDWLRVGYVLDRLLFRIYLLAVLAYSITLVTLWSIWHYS
Procedure: Human embryonic kidney 293 (HEK293) fibroblasts (ATCC CRL1573) were cultured in minimal essential medium supplemented with 10% fetal bovine serum and 2 mM glutamine (Life Technologies, Rockville, Md.). Cells were plated on poly-D-lysine-coated 35 mm nunc dishes, transfected by the LipofectaminePLUS method (Life Technologies), and examined functionally between 18-48 h post transfection. The following receptor subunit cDNAs were used: nAChR-α3 (nicotinic acetylcholine receptor-α3; accession no. L31621), nAChR-α4 (accession no. L31620), nAChR-β2 (accession no. L31622), nAChR-β4 (accession no. U42976), 5-HT3R-A (5-HT3A receptor; accession no. M74425), NR1 (N-methyl-D-aspartate receptor 1; accession no. X63255), NR2A (accession no. X91561), and NR2B (accession no. M91562). The nAchR and NR clones were rat; the 5-HT3R-A clone was mouse. Co-transfection of enhanced green fluorescent protein (“EGFP”) (10% of total cDNA) provided a marker to identify transfected cells. Transfected cells were selected for EGFP expression and examined by voltage-clamp recording in the whole-cell configuration using an Axopatch 200B patch-clamp amplifier (Axon Instruments, Foster City, Calif.). Thin-walled borosilicate glass microelectrodes (TW150F, World Precision Instruments, Sarasota, Fla.) had resistances of 3-5 MΩ when filled with an internal solution containing (in mM): 135 CsCl, 10 CsF, 10 HEPES (N-[2-hydroxyethyl]piperazine-N′-[2-ethanesulfonic acid]), 5 EGTA (ethylene glycol-bis[β-aminoethyl ether]-N,N,N′,N′-tetraacetic acid), 1 MgCl2, 0.5 CaCl2, pH 7.2. Whole-cell capacitance and series resistance were recorded and adequately compensated using the available circuitry of the amplifier. Current responses were filtered at 1 kHz with an 8-pole Bessel filter (Cygnus Technologies, Delaware Water Gap, Pa.), digitized at 3 kHz, and stored on a Macintosh PowerPC-G3 computer using an ITC-16 interface (Instrutech, Great Neck, N.Y.) under control of the data acquisition and analysis program Synapse (Synergy Research, Gaithersburg, Md.). Cells were continuously superfused with extracellular solution containing (in mM): 150 NaCl, 3 KCl, 5 HEPES, 1 MgCl2, 1.8 CaCl2, 10 glucose, and 0.1 mg/ml phenol red, pH 7.3 (MgCl2 was omitted from all solutions used for the study of NMDA receptors). […] Control, agonist, and drug solutions were applied to individual cells by rapid perfusion. Solutions were driven by a syringe pump through a flowpipe having 4 inputs that converge at a single common output of approximately 100 μm diameter. Rapid switching between inputs was achieved using a set of upstream solenoid valves (Lee Co., Westbrook, Conn.) under computer control; the solution exchange rate was ˜5 ms as measured from liquid junction currents.
Transfected HEK293 cells expressing 5-HT3A receptors were voltage-clamped to −70 mV and stimulated with 100 μM serotonin at 30 s intervals. […] This is shown in FIG. 4, where open bars depict the timing of agonist application, filled bars depict the timing of co-application of 20 μM IBO or 20 μM 18MC, and inhibition was measured relative to control at the end of the drug application (indicated by arrows).

[1] = tested on: nicotine self-administration; assay: nicotine self-administration; type: in vivo, rat; conditions: Example 7, FIGS. 11-12: mecamylamine 0.1 mg/kg i.p., 18-methoxycoronaridine 0.5 mg/kg i.p., dextromethorphan 0.5 mg/kg s.c., bupropion 5 mg/kg i.p.; 5-8 rats

T1 sequence (P04757 26-499): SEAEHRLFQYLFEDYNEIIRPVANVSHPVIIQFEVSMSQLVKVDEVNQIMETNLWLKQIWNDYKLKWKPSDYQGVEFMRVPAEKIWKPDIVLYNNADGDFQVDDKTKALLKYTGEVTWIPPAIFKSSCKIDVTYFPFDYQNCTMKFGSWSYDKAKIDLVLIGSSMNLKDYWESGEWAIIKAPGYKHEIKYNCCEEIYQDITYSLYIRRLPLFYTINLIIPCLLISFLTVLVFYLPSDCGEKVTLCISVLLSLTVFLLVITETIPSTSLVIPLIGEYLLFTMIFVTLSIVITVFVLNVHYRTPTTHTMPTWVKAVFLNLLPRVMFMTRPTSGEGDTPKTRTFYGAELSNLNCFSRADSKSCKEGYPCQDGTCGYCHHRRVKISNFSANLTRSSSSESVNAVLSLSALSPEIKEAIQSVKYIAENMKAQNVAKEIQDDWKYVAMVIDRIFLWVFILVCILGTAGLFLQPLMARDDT
T1 sequence (P12392 21-495): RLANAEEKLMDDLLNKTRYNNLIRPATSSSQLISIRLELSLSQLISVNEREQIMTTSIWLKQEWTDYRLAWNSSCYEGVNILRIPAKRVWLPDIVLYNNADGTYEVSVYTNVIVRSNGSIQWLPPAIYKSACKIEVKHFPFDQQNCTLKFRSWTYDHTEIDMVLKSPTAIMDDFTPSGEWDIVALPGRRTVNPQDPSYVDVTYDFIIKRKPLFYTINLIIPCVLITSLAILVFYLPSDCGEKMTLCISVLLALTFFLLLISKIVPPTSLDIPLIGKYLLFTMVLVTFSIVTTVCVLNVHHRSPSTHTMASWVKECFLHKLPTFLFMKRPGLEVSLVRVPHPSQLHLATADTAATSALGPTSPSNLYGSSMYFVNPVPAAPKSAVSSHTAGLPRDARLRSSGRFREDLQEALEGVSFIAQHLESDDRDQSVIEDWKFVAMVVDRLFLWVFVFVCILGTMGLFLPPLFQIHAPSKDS

## COCC[C@H]1CC2CN3CCc4c([nH]c5ccccc45)[C@](C(=O)OC)(C2)[C@H]13 [18-methoxycoronaridine]
α3β4 nACh receptors; 20 μM drug alone, -70 mV
  response to drug applied alone (agonist activity): did not produce any response
α3β4 nACh receptors; 20 μM drug with 1 mM ACh, N=15, FIG. 1A
  inhibition of ACh-evoked responses on co-application: nearly abolished
5-HT3A receptors; 20 μM drug alone
  response to drug applied alone (agonist activity): did not produce any response
5-HT3A receptors; 20 μM drug with 100 μM serotonin, FIG. 4
  inhibition of serotonin-evoked responses: 50±3%
5-HT3A receptors; approximate, from 20 μM data, read-out: IC50 at 5-HT3 receptors
  IC50: ~20 µM
[1]
  effect on nicotine self-administration (percent of baseline): none of the drugs administered alone, significantly decreased
